Experimental data as given in US8609669B2, “Potassium channel modulators” (AbbVie Inc., priority 2010, dated 2013).

Molecular target: T1, KCNQ 2/3 channels (HEK293 cells stably expressing human KCNQ2 and KCNQ3 subunits) (Homo sapiens, UniProt O43525+O43526)
T1 construct: expressed in transfected cells; host or cells: HEK293
Experiment: KCNQ2/3 channel activation, thallium flux FLIPR assay (BTC-AM dye)
Format: cell-based
Settings: for Emax: HEK293, maximum response relative to response of retigabine at 10 μM (set at 100%), read-out: Max. %; for EC50: HEK293 cells expressing human KCNQ2 and KCNQ3, FLIPR thallium flux
In short: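 HEK293 cells stably expressing human KCNQ2/KCNQ3 were loaded with BTC-AM and exposed to compound for 4 min in pH 7.3 gluconate buffer with ouabain. Thallium flux was triggered with 6 mM TlNO3 and 10 mM K2SO4 (stock additions) and fluorescence (ex 488, em 540 nm) recorded for 3 min. EC50 came from responses over baseline; maximal response is relative to 10 μM retigabine (100%).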

| Structure (SMILES) | Emax | EC50 |
| --- | --- | --- |
| CC(C)(C)c1c(NC(=O)CC2(C)CCc3ccccc32)nn2cccnc12 (racemic) [Example 131, (±)-N-(3-tert-butylpyrazolo[1,5-a]pyrimidin-2-yl)-2-(1-methyl-2,3-dihydro-1H-inden-1-yl)acetamide] | 97% | 1000 to 10000 nM |
| Cc1cnc2c(C(C)(C)C)c(NC(=O)CCC3CCCC3)nn2c1 [Example 179, N-(3-tert-butyl-6-methylpyrazolo[1,5-a]pyrimidin-2-yl)-3-cyclopentylpropanamide] | 151% | < 100 nM |
| O=C(CCC1CCCC1)Nc1nn2cccnc2c1/C=C/c1ccc(C(F)(F)F)cc1 [Example 153, 3-cyclopentyl-N-(3-{(E)-2-[4-(trifluoromethyl)phenyl]vinyl}pyrazolo[1,5-a]pyrimidin-2-yl)propanamide] | 50% | > 10000 nM |
| CC(C)(C)c1c(NC(=O)CC2CCCC2)nn2cccnc12 [Example 154, N-(3-tert-butylpyrazolo[1,5-a]pyrimidin-2-yl)-2-cyclopentylacetamide] | 188% | 1000 to 10000 nM |
| CC(C)c1c(NC(=O)CCC2CCCC2)nn2cccnc12 [Example 112, 3-cyclopentyl-N-(3-isopropylpyrazolo[1,5-a]pyrimidin-2-yl)propanamide] | 135% | 500 to 1000 nM |
| O=C(CCC1CCCC1)Nc1nn2cccnc2c1-c1cccc(Cl)c1 [Example 56, N-[3-(3-chlorophenyl)pyrazolo[1,5-a]pyrimidin-2-yl]-3-cyclopentylpropanamide] | 98% | 100 to 500 nM |
| O=C(CC1CCCC1)Nc1nn2cccnc2c1-c1cccc(C(F)(F)F)c1 [Example 64, 2-cyclopentyl-N-{3-[3-(trifluoromethyl)phenyl]pyrazolo[1,5-a]pyrimidin-2-yl}acetamide] | 113% | > 10000 nM |
| CC(C)(C)CC(=O)Nc1nn2cccnc2c1/C=C/c1ccc(C(F)(F)F)cc1 [Example 147, 3,3-dimethyl-N-(3-{(E)-2-[4-(trifluoromethyl)phenyl]vinyl}pyrazolo[1,5-a]pyrimidin-2-yl)butanamide] | 65% | 1000 to 10000 nM |
| CCC1(c2c(NC(=O)CCC3CCCC3)nn3cccnc23)CCCCC1 [Example 145, 3-cyclopentyl-N-[3-(1-ethylcyclohexyl)pyrazolo[1,5-a]pyrimidin-2-yl]propanamide] | 182% | 100 to 500 nM |
| CC(C)(C)Cc1c(NC(=O)CCC2CCCCC2)nn2cccnc12 [Example 11, 3-cyclohexyl-N-[3-(2,2-dimethylpropyl)pyrazolo[1,5-a]pyrimidin-2-yl]propanamide] | 194% | < 100 nM |
| CC(C)(C)c1c(NC(=O)CCc2ccccc2)nn2cccnc12 [Example 129, N-(3-tert-butylpyrazolo[1,5-a]pyrimidin-2-yl)-3-phenylpropanamide] | 160% | 100 to 500 nM |
| Cc1cc(C)n2nc(NC(=O)CCC3CCCC3)c(-c3ccccc3)c2n1 [Example 95, 3-cyclopentyl-N-(5,7-dimethyl-3-phenylpyrazolo[1,5-a]pyrimidin-2-yl)propanamide] | 167% | < 100 nM |
| Cc1ccnc2c(-c3cccc(C(F)(F)F)c3)c(NC(=O)CCC3CCCCC3)nn12 [Example 65, 3-cyclohexyl-N-{7-methyl-3-[3-(trifluoromethyl)phenyl]pyrazolo[1,5-a]pyrimidin-2-yl}propanamide] | 56% | 100 to 500 nM |

The next lines start with the values.

| Emax | EC50 | Structure (SMILES) |
| --- | --- | --- |
| 7% | > 10000 nM | COc1ncc(-c2c(NC(=O)Cc3ccc(F)cc3)nn3cccnc23)cn1 [Example 181, 2-(4-fluorophenyl)-N-[3-(2-methoxypyrimidin-5-yl)pyrazolo[1,5-a]pyrimidin-2-yl]acetamide] |
| 157% | < 100 nM | Cc1cc(C)n2nc(NC(=O)CCC3CCCC3)c(-c3ccc(Cl)cc3)c2n1 [Example 43, N-[3-(4-chlorophenyl)-5,7-dimethylpyrazolo[1,5-a]pyrimidin-2-yl]-3-cyclopentylpropanamide] |
| 120% | 1000 to 10000 nM | Cc1ccnc2c(-c3ccc(F)cc3)c(NC(=O)Cc3ccc(F)cc3)nn12 [Example 28, 2-(4-fluorophenyl)-N-[3-(4-fluorophenyl)-7-methylpyrazolo[1,5-a]pyrimidin-2-yl]acetamide] |
| 164% | 1000 to 10000 nM | Cc1cnc2c(-c3ccccc3)c(NC(=O)CC(C)(C)C)nn2c1 [Example 92, 3,3-dimethyl-N-(6-methyl-3-phenylpyrazolo[1,5-a]pyrimidin-2-yl)butanamide] |
| 138% | < 100 nM | Cc1cc(C)n2nc(NC(=O)CC3CCCCC3)c(-c3cccc(F)c3)c2n1 [Example 86, 2-cyclohexyl-N-[3-(3-fluorophenyl)-5,7-dimethylpyrazolo[1,5-a]pyrimidin-2-yl]acetamide] |
| 174% | 1000 to 10000 nM | COc1ccc(CC(=O)Nc2nn3c(C)cc(C)nc3c2CC(C)(C)C)cc1 [Example 16, N-[3-(2,2-dimethylpropyl)-5,7-dimethylpyrazolo[1,5-a]pyrimidin-2-yl]-2-(4-methoxyphenyl)acetamide] |
| 99% | < 100 nM | O=C(CCC1CCCCC1)Nc1nn2cccnc2c1-c1ccc(Cl)cc1 [Example 157, N-[3-(4-chlorophenyl)pyrazolo[1,5-a]pyrimidin-2-yl]-3-cyclohexylpropanamide] |
| 136% | 500 to 1000 nM | Cc1ccnc2c(-c3ccc(OC(F)(F)F)cc3)c(NC(=O)CC(C)(C)c3ccccc3)nn12 [Example 159, 3-methyl-N-{7-methyl-3-[4-(trifluoromethoxy)phenyl]pyrazolo[1,5-a]pyrimidin-2-yl}-3-phenylbutanamide] |
| 154% | 500 to 1000 nM | COc1cccc(CC(=O)Nc2nn3cc(C)cnc3c2-c2ccc(F)cc2)c1 [Example 26, N-[3-(4-fluorophenyl)-6-methylpyrazolo[1,5-a]pyrimidin-2-yl]-2-(3-methoxyphenyl)acetamide] |
| 123% | 100 to 500 nM | Cc1cnc2c(-c3ccc(C(F)(F)F)cc3)c(NC(=O)CCc3ccccc3)nn2c1 [Example 59, N-{6-methyl-3-[4-(trifluoromethyl)phenyl]pyrazolo[1,5-a]pyrimidin-2-yl}-3-phenylpropanamide] |
| 166% | 100 to 500 nM | Cc1cc(C)n2nc(NC(=O)CCc3ccccc3)c(-c3ccc(F)cc3)c2n1 [Example 29, N-[3-(4-fluorophenyl)-5,7-dimethylpyrazolo[1,5-a]pyrimidin-2-yl]-3-phenylpropanamide] |
| 123% | 1000 to 10000 nM | Cc1ccnc2c(-c3cccc(Cl)c3)c(NC(=O)CCc3ccccc3)nn12 [Example 49, N-[3-(3-chlorophenyl)-7-methylpyrazolo[1,5-a]pyrimidin-2-yl]-3-phenylpropanamide] |
| 73% | 1000 to 10000 nM | Cc1cnc2c(-c3cccc(Cl)c3)c(NC(=O)CC(C)(C)C)nn2c1 [Example 51, N-[3-(3-chlorophenyl)-6-methylpyrazolo[1,5-a]pyrimidin-2-yl]-3,3-dimethylbutanamide] |
| 112% | 500 to 1000 nM | O=C(Cc1ccc(F)cc1)Nc1nn2cccnc2c1-c1cccc(F)c1 [Example 82, 2-(4-fluorophenyl)-N-[3-(3-fluorophenyl)pyrazolo[1,5-a]pyrimidin-2-yl]acetamide] |
